Measurements published in ChEMBL document CHEMBL1141786, “Microbial transformation of curvularin” (J Nat Prod, 2005).
Calls of active or inactive are those of the source. The calls are words filed in the database; no cut-off is given here.

Test system: MCF7
Experiment: Cytotoxicity against human MCF7 cells upto 10 ug/mL by MTT assay
Format: functional, cell-based

Compound | Activity
CO[C@H]1[C@H](O)[C@@H](O)[C@H](Oc2c(O)cc3c(c2O)C(=O)CCCCC[C@H](C)OC(=O)C3)O[C@@H]1CO | inactive
CO[C@H]1[C@H](O)[C@@H](O)[C@H](Oc2cc(O)cc3c2C(=O)CCCCC[C@H](C)OC(=O)C3)O[C@@H]1CO | inactive
C[C@H]1CCCCCC(=O)c2c(cc(O)cc2O[C@@H]2O[C@H](CO)[C@@H](O)[C@H](O)[C@H]2O)CC(=O)O1 | inactive

Test system: SF-268
Experiment: Cytotoxicity against human SF268 cells upto 10 ug/mL by MTT assay
Format: functional, cell-based

Compound | Activity
CO[C@H]1[C@H](O)[C@@H](O)[C@H](Oc2c(O)cc3c(c2O)C(=O)CCCCC[C@H](C)OC(=O)C3)O[C@@H]1CO | inactive
CO[C@H]1[C@H](O)[C@@H](O)[C@H](Oc2cc(O)cc3c2C(=O)CCCCC[C@H](C)OC(=O)C3)O[C@@H]1CO | inactive
C[C@H]1CCCCCC(=O)c2c(cc(O)cc2O[C@@H]2O[C@H](CO)[C@@H](O)[C@H](O)[C@H]2O)CC(=O)O1 | inactive

Test system: NCI-H460
Experiment: Cytotoxicity against human NCI-H460 cells upto 10 ug/mL by MTT assay
Format: functional, cell-based

Compound | Activity
CO[C@H]1[C@H](O)[C@@H](O)[C@H](Oc2c(O)cc3c(c2O)C(=O)CCCCC[C@H](C)OC(=O)C3)O[C@@H]1CO | inactive
CO[C@H]1[C@H](O)[C@@H](O)[C@H](Oc2cc(O)cc3c2C(=O)CCCCC[C@H](C)OC(=O)C3)O[C@@H]1CO | inactive
C[C@H]1CCCCCC(=O)c2c(cc(O)cc2O[C@@H]2O[C@H](CO)[C@@H](O)[C@H](O)[C@H]2O)CC(=O)O1 | inactive
